The structures appear in SMILES notation.

The term melting point denotes the temperature of the solid-liquid transition. In turn, `COCCOc1ccc(N2CCC(O)(COc3ccc(F)c4c3CCC(=O)N4)CC2)c(F)c1` displayed a melting point of 174 °C.

As to `COc1cc(F)c(N2CCC(O)(COc3ccc(F)c4c3CCC(=O)N4)CC2)c(F)c1`, the melting point was in the range of 195.7 to 196.4 °C.

Molecule `O=C1CCc2c(cccc2OCC2(O)CCN(c3ccc(Cl)cc3F)CC2)N1` returned a melting point of 231.6 to 232.9 °C.

`O=C1CCc2c(OCC3(O)CCN(c4cc(F)c(Cl)cc4F)CC3)ccc(Cl)c2N1`: the melting point was in the range of 190.3 to 190.4 °C.

`CCOc1cc(N2CCC(O)(COc3ccc(F)c4c3CCC(=O)N4)CC2)c(F)cc1Cl` came in with a melting point of 239.8 to 239.9 °C.

The molecule `O=C1CCc2c(OCC3(O)CCN(c4ccc(OCCF)cc4F)CC3)ccc(F)c2N1` gave a melting point of 186.5 to 186.7 °C.

`O=C1CCc2c(OCC3(O)CCN(c4ccc(OC(F)F)cc4F)CC3)ccc(F)c2N1`: the melting point lay within 201.6 to 202 °C.

`O=C1CCc2c(OCC3(O)CCN(c4c(F)cc(F)cc4F)CC3)ccc(Cl)c2N1`: the melting point was in the range of 175.6 to 176.1 °C.

The molecule `O=C1CCc2c(OCC3(O)CCN(c4ccc(OCc5ccc(C(F)(F)F)cc5)cc4F)CC3)ccc(F)c2N1` displayed a melting point of 207.4 to 210.3 °C.

For the molecule `O=C1CCc2c(OCC3(O)CCN(c4ccc(F)cc4F)CC3)ccc(F)c2N1`, the melting point was in the range of 201.7 to 201.9 °C.

In turn, `NC1(COc2ccc(F)c3c2CCC(=O)N3)CCN(c2ncc(F)cc2F)CC1` came in with a melting point of 160.9 to 163.1 °C.

`CC(C)c1cc(N2CCC(O)(COc3ccc(F)c4c3CCC(=O)N4)CC2)c(F)cc1Cl` had a melting point of 225.3 to 225.7 °C.

As to `Cc1ccc(N2CCC(O)(COc3ccc(F)c4c3CCC(=O)N4)CC2)nc1C`, the melting point fell in the range of 197.9 to 199.6 °C.

Turning to `CCOc1cnc(N2CCC(O)(COc3ccc(Cl)c4c3CCC(=O)N4)CC2)c(Cl)c1`, the melting point fell in the range of 169 to 170.4 °C.

In turn, `CSc1ccc(N2CCC(O)(COc3ccc(F)c4c3CCC(=O)N4)CC2)c(Cl)c1` registered a melting point of 207.4 to 207.6 °C.

`O=C1CCc2c(OCC3(O)CCN(c4ccc(OCC(F)(F)F)cc4F)CC3)ccc(Cl)c2N1` gave a melting point of 148.6 to 148.7 °C.

For the molecule `CCc1cc(N2CCC(O)(COc3ccc(Cl)c4c3CCC(=O)N4)CC2)c(F)cc1F`, the melting point was in the range of 178.8 to 178.9 °C.

On to `O=C1CCc2c(OC[C@]3(O)CCN(c4ccccc4Cl)C[C@H]3O)ccc(F)c2N1`, for which the melting point fell in the range of 161.3 to 161.4 °C.

The molecule `O=C1CCc2c(OC[C@]3(O)CCN(c4ccc(F)cc4F)C[C@H]3O)ccc(F)c2N1` displayed a melting point of 175.2 to 176.1 °C.

Molecule `O=C1CCc2c(OC[C@]3(O)CCN(c4ccccc4)C[C@H]3O)ccc(F)c2N1` had a melting point of 202.8 to 203.5 °C.

Consider `O=C1CCc2c(OC[C@]3(O)CCN(c4ccc(OC(F)F)cc4)C[C@H]3O)ccc(F)c2N1`, for which the melting point lay in the range of 163.1 to 164.6 °C.

With `O=C1CCc2c(OC[C@]3(O)CCN(c4nc5ccccc5[nH]4)C[C@H]3O)ccc(F)c2N1`, the melting point was 279 to 281 °C.

Turning to `O=C1CCc2c(OC[C@]3(O)CCN(c4ccc(Cl)cc4F)C[C@@H]3O)ccc(F)c2N1`, the melting point lay in the range of 198.6 to 198.8 °C.

`O=c1ccc2c(OC[C@]3(O)CCN(c4ccc(Br)cc4F)C[C@H]3O)ccc(F)c2[nH]1`: the melting point was 224.5 °C (dec.).

Take `NOC1(COc2ccc(F)c3c2CCC(=O)N3)CCN(c2ncc(Cl)cc2Cl)CC1`: the melting point was 147 to 149 °C.

For `CC(=O)O[C@@H]1CN(c2c(F)cc(Cl)cc2F)CC[C@@]1(O)COc1ccc(F)c2c1CCC(=O)N2`, the melting point was in the range of 163 to 165 °C.

As for `CCOC(=O)O[C@@H]1CN(c2ccc(Cl)cc2F)CC[C@@]1(O)COc1ccc(F)c2c1CCC(=O)N2`, the melting point lay in the range of 171 to 172 °C.

`O=C1CCc2c(OCC3(O)CCN(c4ccccc4)CC3)ccc(F)c2N1` came in with a melting point of 177 to 177.4 °C.

`CCOc1cccc(N2CCC(O)(COc3ccc(F)c4c3CCC(=O)N4)CC2)c1` registered a melting point of 128.1 °C.

As for `O=C1CCc2c(OCC3(O)CCN(c4c(Cl)cc(Cl)cc4Cl)CC3)ccc(F)c2N1`, the melting point was in the range of 239.4 to 239.8 °C.

Molecule `O=C1CCc2c(OCC3(O)CCN(c4c(Cl)cncc4Cl)CC3)ccc(F)c2N1` gave a melting point of 225.8 to 225.9 °C.

Molecule `N#Cc1ccc(N2CCC(O)(COc3ccc(F)c4c3CCC(=O)N4)CC2)cc1` returned a melting point of 216 °C.

In turn, `O=C1CCc2c(OCC3(O)CCN(c4cc([N+](=O)[O-])ccc4Cl)CC3)ccc(F)c2N1` had a melting point of 204.8 to 205.4 °C.

Take `CC(C)c1ccc(N2CCC(O)(COc3ccc(F)c4c3CCC(=O)N4)CC2)c(Cl)c1`: the melting point lay in the range of 176.5 to 176.9 °C.

`Cc1cc(Cl)cc(Cl)c1N1CCC(O)(COc2ccc(F)c3c2CCC(=O)N3)CC1` registered a melting point of 251.6 to 251.9 °C.

With `O=C1CCc2c(OCC3(O)CCN(c4c(F)cc(Cl)cc4Cl)CC3)ccc(F)c2N1`, the melting point was 238.8 to 239.1 °C.

`O=C1CCc2c(OC[C@@]3(O)CCN(c4ncc(Cl)cc4Cl)C[C@@H]3O)ccc(F)c2N1` (relative stereo) came in with a melting point of 202.6 to 204.8 °C.

As for `O=C1CCc2c(OC[C@@]3(O)CCN(c4ccc(Cl)cc4F)C[C@@H]3O)ccc(F)c2N1` (relative stereo), the melting point lay within 191.9 to 193.5 °C.

As to `O=C1CCc2c(OC[C@@]3(O)CCN(c4c(F)cc(Cl)cc4F)C[C@@H]3O)cc(F)c(F)c2N1` (relative stereo), the melting point was 215 to 217 °C.

`O=C1CCc2c(OC[C@]3(O)CCN(c4cc5c(cc4F)OC(F)(F)O5)C[C@H]3O)ccc(F)c2N1` (relative stereo) yielded a melting point of 197.4 to 197.5 °C.

`O=C1CCc2c(OC[C@]3(O)CCN(c4ccc(Br)cc4F)C[C@H]3O)cc(F)c(F)c2N1` (relative stereo): the melting point fell in the range of 214 to 216 °C.

The molecule `O=C1CCc2c(OC[C@]3(O)CCN(c4ccc(Br)cc4F)C[C@H]3O)cc(F)c(Cl)c2N1` (relative stereo) registered a melting point of 194 °C.

`O=C1CCc2c(OC[C@@]3(O)CCN(c4cc(F)c(Cl)cc4F)C[C@H]3O)ccc(F)c2N1` (relative stereo) registered a melting point of 184 to 185 °C.

Molecule `O=C1CCc2c(OC[C@]3(O)CCN(c4c(F)cc(Br)cc4F)C[C@@H]3O)ccc(F)c2N1` (relative stereo) registered a melting point of 209 to 210 °C.

In turn, `O=C1CCc2c(OC[C@H]3CCN(c4cc(F)c(Cl)cc4F)C[C@@H]3O)ccc(F)c2N1` (relative stereo) registered a melting point of 168.9 to 172.7 °C.

In turn, `CO[C@H]1CN(c2ncc(Cl)cc2Cl)CC[C@@]1(O)COc1ccc(F)c2c1CCC(=O)N2` (relative stereo) gave a melting point of 186 to 187 °C.

Consider `CO[C@H]1CN(c2ncc(Cl)cc2Cl)CC[C@]1(O)COc1ccc(F)c2c1CCC(=O)N2` (relative stereo), for which the melting point was in the range of 162.8 to 164 °C.

`C[C@H]1CN(c2ncc(Cl)cc2Cl)CC[C@@]1(O)COc1ccc(F)c2c1CCC(=O)N2` (relative stereo): the melting point was 222 to 223 °C.

`N#C[C@H]1CN(c2ncc(Cl)cc2Cl)CC[C@@]1(O)COc1ccc(F)c2c1CCC(=O)N2` (relative stereo) had a melting point of 206 to 207 °C.

The molecule `C[C@]1(O)CN(c2ncc(Cl)cc2Cl)CC[C@]1(O)COc1ccc(F)c2c1CCC(=O)N2` (relative stereo) displayed a melting point of 182.6 to 187.5 °C.

With `O=C1CCc2c(OC[C@]3(O)CCN(c4ccc(Cl)cc4F)C[C@@H]3F)ccc(F)c2N1` (relative stereo), the melting point lay within 190 to 191 °C.

In turn, `O=C1CCc2c(OC[C@]3(O)CCN(c4ccc(Cl)cc4F)C[C@H]3F)ccc(F)c2N1` (relative stereo) gave a melting point of 194 to 195 °C.

In the case of `O=C1CCc2c(OC[C@]3(O)CCN(c4ccc(F)cc4Cl)C[C@@H]3F)ccc(F)c2N1` (relative stereo), the melting point was in the range of 204 to 205 °C.

`O=C1CCc2c(OC[C@]3(O)CCN(c4ccc(F)cc4Cl)C[C@H]3F)ccc(F)c2N1` (relative stereo) registered a melting point of 218 to 220 °C.

For the molecule `O=C1CCc2c(OCC3(O)[C@H](O)CN(c4c(F)cc(Cl)cc4F)C[C@H]3O)ccc(F)c2N1` (relative stereo), the melting point lay in the range of 221.5 to 222 °C.

Take `O=C1CCc2c(OC[C@]3(O)CCN(c4ccc(Br)cc4F)C[C@H]3O)ccc(Cl)c2N1` (relative stereo) [Example 269]: the melting point fell in the range of 190 to 192 °C.

`O=C1CCc2c(OC[C@]3(O)CCN(c4c(F)cc(Cl)cc4F)C[C@H]3O)cc(F)c(Cl)c2N1` (relative stereo) [Example 277] returned a melting point of 201 to 204 °C.

`O=C1CCc2c(OC[C@]3(O)CCN(c4c(F)cc(Br)cc4F)C[C@H]3O)ccc(F)c2N1` (relative stereo) [Example 301] returned a melting point of 191 to 193 °C.

In turn, `O=C1CCc2c(OC[C@]3(O)CCN(c4c(F)cc(F)cc4Cl)C[C@H]3O)ccc(F)c2N1` (relative stereo) [Example 303] showed a melting point of 215 to 218 °C.

For `O=C1CCc2c(OC[C@]3(O)CCN(c4c(F)cc(F)cc4F)C[C@H]3O)ccc(F)c2N1` (relative stereo) [Example 305], the melting point lay within 198 to 199 °C.

Take `O=C1CCc2c(OC[C@]3(O)CCN(c4c(F)cc(OCC(F)(F)F)cc4F)C[C@H]3O)ccc(F)c2N1` (relative stereo) [Example 310]: the melting point was 201 to 202 °C.

As to `O=C1CCc2c(OC[C@]3(O)CCN(c4c(F)cc(OC(F)F)cc4F)C[C@H]3O)ccc(F)c2N1` (relative stereo) [Example 314], the melting point was in the range of 167 to 169 °C.

`CCOc1cc(F)c(N2CC[C@@](O)(COc3ccc(F)c4c3CCC(=O)N4)[C@H](O)C2)c(F)c1` (relative stereo) [Example 316]: the melting point is 199 to 202 °C.

`O=C1CCc2c(OC[C@]3(O)CCN(c4ccc(Cl)cc4F)C[C@H]3O)cc(F)c(F)c2N1` (relative stereo) [Example 330] had a melting point of 220.5 to 221.3 °C.

Regarding `O=C1CCc2c(OC[C@]3(O)CCN(c4ccc(Cl)cc4F)C[C@H]3O)ccc(Cl)c2N1` (relative stereo) [Example 334], the melting point was 195.5 to 195.6 °C.

The molecule `O=C1CCc2c(OC[C@]3(O)CCN(c4ccc(F)cc4)C[C@H]3O)ccc(F)c2N1` (relative stereo) [Example 336] came in with a melting point of 182.4 to 182.5 °C.

The values are drawn from patent US10464926B2, “Heterobicyclic compounds and their use for the treatment of tuberculosis” (OTSUKA PHARMACEUTICAL CO., LTD., priority 2014, dated 2019).
